Tested on: mildew of wheat (Erysiphe [syn. Blumeria] graminis form a specialis tritici)
Assay: Activity against mildew of wheat, protective spray on potted wheat seedlings (cultivar Kanzler), greenhouse
Type: in vivo
Conditions: wheat leaves, 7 days after inoculation
Description: The active compounds, separately or together, were formulated as a 10% emulsion in a mixture of 63% by weight of cyclohexanone and 27% by weight of emulsifier, and diluted with water to the desired concentration.
Evaluation was carried out by determining the infected leaf areas in percent. These percentages were converted into efficacies. The efficacy (W) was calculated as follows using Abbot's formula:
[formula] • α corresponds to the fungal infection of the treated plants in % and • β corresponds to the fungal infection of the untreated (control) plants in %
An efficacy of 0 means that the infection level of the treated plants corresponds to that of the untreated control plants; an efficacy of 100 means that the treated plants were not infected.
The expected efficacies of the mixtures of the active compounds were determined using Colby's formula [R. S. Colby, Weeds 15, 20-22 (1967)] and compared with the observed efficacies.
Colby's formula: E=x+y−x·y/100 • E expected efficacy, expressed in % of the untreated control, when using the mixture of the active compounds A and B at the concentrations a and b • x efficacy, expressed in % of the untreated control, when using active compound A at a concentration of a • y efficacy, expressed in % of the untreated control, when using active compound B at a concentration of b.
Leaves of wheat seedlings of the cultivar “Kanzler” grown in pots were sprayed to run-off point with an aqueous suspension having the concentration of active compounds stated below. The suspension or emulsion was prepared from a stock solution made using 10% of active compound in a mixture comprising 70% of cyclohexanone, 20% of wetting agent and 10% of emulsifier. 24 hours after the spraycoating had dried on, the leaves dusted with spores of mildew of wheat (Erysiphe [syn. Blumeria] graminis form a specialis tritici). The test plants were then placed in a greenhouse at 20-24° C. and 60-90% relative atmospheric humidity.
After 7 days, the extent of the development of the mildew was determined visually in % infection of the entire leaf area.
The visually determined values for the percentage of diseased leaf area were converted into efficacies in % of the untreated control. An efficacy of 0 means the same disease level as in the untreated control, an efficacy of 100 means a disease level of 0%. The expected efficacies for the active compound combinations were determined using Colby's formula mentioned above and compared with the observed efficacies.

[1] = 0.06 ppm active compound in the spray liquor
[2] = 0.25 ppm active compound in the spray liquor
[3] = 1 ppm active compound in the spray liquor
[4] = 4 ppm active compound in the spray liquor

| Compound | Efficacy in % of the untreated control (0.015 ppm active compound in the spray liquor) | Efficacy in % of the untreated control [1] | Efficacy in % of the untreated control [2] | Efficacy in % of the untreated control [3] | Efficacy in % of the untreated control [4] |
| --- | --- | --- | --- | --- | --- |
| OC(Cc1ccccc1Cl)(Cn1nc[nH]c1=S)C1(Cl)CC1 (stereo not drawn) [Compound I, 2-[2-(1-chlorocyclopropyl)-3-(2-chlorophenyl)-2-hydroxypropyl]-2,4-dihydro-[1,2,4]-triazole-3-thione] | 0% | 0% | 0% | 0% | 56% |
| Fc1ccc(C2(Cn3cncn3)OC2c2ccccc2Cl)cc1 (stereo not drawn) [Compound II, epoxiconazole] |  | 11% | 33% | 44% |  |
| CC1(C)CCC(Cc2ccc(Cl)cc2)C1(O)Cn1cncn1 (stereo not drawn) [Compound III, metconazole] |  |  | 11% |  |  |
| CCCCC(C#N)(Cn1cncn1)c1ccc(Cl)cc1 (stereo not drawn) [Compound XIII, myclobutanil] |  | 0% |  | 11% | 56% |
